Experimental data taken from paper PMC4490784, “Compensatory induction of MYC expression by sustained CDK9 inhibition via a BRD4-dependent mechanism” (eLife, 2015).

Experiments:
Experiment in all cases: KINOMEscan binding assay
INSRR = target: T1, INSRR (Homo sapiens, UniProt P14616); conditions: read-out: % Retention on Solid Support
T1 construct: purchased DiscoveRx KINOMEscan
In short: (§1)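 i-CDK9 at 1 and 10 µM; competition binding against an immobilized active-site probe; >400-kinase panel.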

JNK2 = target: T2, JNK2 (Homo sapiens, UniProt P45984)
T2 construct: purchased DiscoveRx KINOMEscan
T2 sequence (P45984 whole entry): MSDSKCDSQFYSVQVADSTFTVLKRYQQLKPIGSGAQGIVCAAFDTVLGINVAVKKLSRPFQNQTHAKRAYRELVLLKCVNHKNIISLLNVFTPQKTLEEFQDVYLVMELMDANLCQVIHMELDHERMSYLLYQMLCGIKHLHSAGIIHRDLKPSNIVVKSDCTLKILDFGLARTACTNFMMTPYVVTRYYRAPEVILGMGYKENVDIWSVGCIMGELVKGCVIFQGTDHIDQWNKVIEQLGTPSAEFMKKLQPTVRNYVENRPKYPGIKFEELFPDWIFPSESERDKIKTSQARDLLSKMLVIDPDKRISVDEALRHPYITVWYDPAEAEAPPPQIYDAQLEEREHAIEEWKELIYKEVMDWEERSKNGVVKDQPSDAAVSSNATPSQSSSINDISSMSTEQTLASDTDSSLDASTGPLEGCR
In short: as §1

[1] = target: T3, ABL1(M351T)-nonphosphorylated (Homo sapiens, UniProt P00519, M351T); conditions: 10 µM i-CDK9; read-out: % Retention on Solid Support
T3 construct: purchased DiscoveRx KINOMEscan
In short: as §1

FGFR2 = target: T4, FGFR2 (Homo sapiens, UniProt P21802); conditions: read-out: % Retention on Solid Support
T4 construct: purchased DiscoveRx KINOMEscan
In short: as §1

CAMKK1 = target: T5, CAMKK1 (Homo sapiens, UniProt Q8N5S9); conditions: read-out: % Retention on Solid Support
T5 construct: purchased DiscoveRx KINOMEscan
In short: as §1

GAK = target: T6, GAK (Homo sapiens, UniProt O14976); conditions: read-out: % Retention on Solid Support
T6 construct: purchased DiscoveRx KINOMEscan
In short: as §1

GRK4 = target: T7, GRK4 (Homo sapiens, UniProt P32298); conditions: read-out: % Retention on Solid Support
T7 construct: purchased DiscoveRx KINOMEscan
T7 sequence (P32298 whole entry): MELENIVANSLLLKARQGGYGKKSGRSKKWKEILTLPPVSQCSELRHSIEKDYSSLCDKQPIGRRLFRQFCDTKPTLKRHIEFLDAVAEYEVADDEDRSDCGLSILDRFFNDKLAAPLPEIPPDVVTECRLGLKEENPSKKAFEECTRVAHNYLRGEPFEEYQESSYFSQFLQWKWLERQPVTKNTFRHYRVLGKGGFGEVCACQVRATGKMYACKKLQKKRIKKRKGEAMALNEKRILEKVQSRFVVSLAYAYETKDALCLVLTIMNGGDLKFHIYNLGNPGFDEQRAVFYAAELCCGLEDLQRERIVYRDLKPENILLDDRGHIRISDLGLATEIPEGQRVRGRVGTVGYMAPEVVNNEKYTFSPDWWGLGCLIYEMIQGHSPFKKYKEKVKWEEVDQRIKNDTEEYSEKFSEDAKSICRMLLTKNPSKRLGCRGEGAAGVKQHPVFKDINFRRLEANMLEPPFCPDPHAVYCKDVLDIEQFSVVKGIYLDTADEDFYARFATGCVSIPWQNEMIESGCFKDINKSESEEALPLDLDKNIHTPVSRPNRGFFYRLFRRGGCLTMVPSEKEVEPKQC
In short: as §1

MEK5 = target: T8, MEK5 (Homo sapiens, UniProt Q13163); conditions: 1 µM i-CDK9; read-out: % Retention on Solid Support
T8 construct: purchased DiscoveRx KINOMEscan
In short: as §1

CDKL3 = target: T9, CDKL3 (Homo sapiens, UniProt Q8IVW4); conditions: read-out: % Retention on Solid Support
T9 construct: purchased DiscoveRx KINOMEscan
T9 sequence (Q8IVW4 whole entry): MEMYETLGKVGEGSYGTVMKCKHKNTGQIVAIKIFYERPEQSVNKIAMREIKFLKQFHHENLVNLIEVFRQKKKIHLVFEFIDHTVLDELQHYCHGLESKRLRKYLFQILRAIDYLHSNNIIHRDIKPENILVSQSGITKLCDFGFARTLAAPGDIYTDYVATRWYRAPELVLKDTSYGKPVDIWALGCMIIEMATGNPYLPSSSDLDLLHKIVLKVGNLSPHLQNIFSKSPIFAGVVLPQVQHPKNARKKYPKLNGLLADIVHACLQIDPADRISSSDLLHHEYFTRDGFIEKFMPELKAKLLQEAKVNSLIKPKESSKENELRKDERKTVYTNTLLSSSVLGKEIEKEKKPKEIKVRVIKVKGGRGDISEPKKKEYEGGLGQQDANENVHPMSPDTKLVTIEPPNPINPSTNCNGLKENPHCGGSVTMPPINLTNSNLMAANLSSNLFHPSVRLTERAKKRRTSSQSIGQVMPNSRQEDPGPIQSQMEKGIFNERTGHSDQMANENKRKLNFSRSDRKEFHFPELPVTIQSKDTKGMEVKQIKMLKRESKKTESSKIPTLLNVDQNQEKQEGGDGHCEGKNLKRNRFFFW
In short: as §1

YSK1 = target: T10, YSK1 (Homo sapiens, UniProt O00506); conditions: read-out: % Retention on Solid Support
T10 construct: purchased DiscoveRx KINOMEscan
T10 sequence (O00506 whole entry): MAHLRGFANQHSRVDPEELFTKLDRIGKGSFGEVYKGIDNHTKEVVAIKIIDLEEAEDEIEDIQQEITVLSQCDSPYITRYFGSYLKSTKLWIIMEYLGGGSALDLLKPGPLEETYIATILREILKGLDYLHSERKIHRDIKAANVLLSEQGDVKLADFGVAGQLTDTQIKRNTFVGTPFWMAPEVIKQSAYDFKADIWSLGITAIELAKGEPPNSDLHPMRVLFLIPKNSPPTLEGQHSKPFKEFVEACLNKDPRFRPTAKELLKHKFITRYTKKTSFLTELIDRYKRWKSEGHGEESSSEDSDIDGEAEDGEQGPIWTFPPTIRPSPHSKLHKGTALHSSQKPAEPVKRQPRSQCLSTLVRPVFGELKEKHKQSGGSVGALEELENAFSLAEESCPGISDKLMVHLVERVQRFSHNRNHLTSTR
In short: as §1

PHKG1 = target: T11, PHKG1 (Homo sapiens, UniProt Q16816); conditions: read-out: % Retention on Solid Support
T11 construct: purchased DiscoveRx KINOMEscan
In short: as §1

ULK1 = target: T12, ULK1 (Homo sapiens, UniProt O75385)
T12 construct: purchased DiscoveRx KINOMEscan
In short: as §1

DDR2 = target: T13, DDR2 (Homo sapiens, UniProt Q16832); conditions: read-out: % Retention on Solid Support
T13 construct: purchased DiscoveRx KINOMEscan
T13 sequence (Q16832 22-855): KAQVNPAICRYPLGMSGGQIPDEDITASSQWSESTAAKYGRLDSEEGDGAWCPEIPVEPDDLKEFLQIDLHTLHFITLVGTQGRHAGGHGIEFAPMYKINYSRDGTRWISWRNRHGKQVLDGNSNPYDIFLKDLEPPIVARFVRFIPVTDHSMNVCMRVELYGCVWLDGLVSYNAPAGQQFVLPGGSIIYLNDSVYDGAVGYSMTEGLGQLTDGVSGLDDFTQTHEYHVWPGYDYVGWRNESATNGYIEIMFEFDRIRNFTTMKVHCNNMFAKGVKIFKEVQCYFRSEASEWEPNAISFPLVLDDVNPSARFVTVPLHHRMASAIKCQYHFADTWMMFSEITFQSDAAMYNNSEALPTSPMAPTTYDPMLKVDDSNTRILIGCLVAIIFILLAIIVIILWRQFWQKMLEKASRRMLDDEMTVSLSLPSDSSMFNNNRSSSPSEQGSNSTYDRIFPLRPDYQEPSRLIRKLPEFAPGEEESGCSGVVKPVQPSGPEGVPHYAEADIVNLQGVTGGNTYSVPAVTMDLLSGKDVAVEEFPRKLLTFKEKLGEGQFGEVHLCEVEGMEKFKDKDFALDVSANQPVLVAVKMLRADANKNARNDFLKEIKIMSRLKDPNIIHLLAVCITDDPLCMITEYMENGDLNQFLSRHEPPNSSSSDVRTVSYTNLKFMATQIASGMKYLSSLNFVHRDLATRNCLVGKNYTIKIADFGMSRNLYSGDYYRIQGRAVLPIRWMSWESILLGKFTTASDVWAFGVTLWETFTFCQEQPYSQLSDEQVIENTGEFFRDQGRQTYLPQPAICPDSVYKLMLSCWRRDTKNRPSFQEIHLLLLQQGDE
In short: as §1

DRAK2 = target: T14, DRAK2 (Homo sapiens, UniProt O94768); conditions: read-out: % Retention on Solid Support
T14 construct: purchased DiscoveRx KINOMEscan
In short: as §1

NEK6 = target: T15, NEK6 (Homo sapiens, UniProt Q9HC98); conditions: read-out: % Retention on Solid Support
T15 construct: purchased DiscoveRx KINOMEscan
In short: as §1

BRSK1 = target: T16, BRSK1 (Homo sapiens, UniProt Q8TDC3); conditions: read-out: % Retention on Solid Support
T16 construct: purchased DiscoveRx KINOMEscan
T16 sequence (Q8TDC3 whole entry): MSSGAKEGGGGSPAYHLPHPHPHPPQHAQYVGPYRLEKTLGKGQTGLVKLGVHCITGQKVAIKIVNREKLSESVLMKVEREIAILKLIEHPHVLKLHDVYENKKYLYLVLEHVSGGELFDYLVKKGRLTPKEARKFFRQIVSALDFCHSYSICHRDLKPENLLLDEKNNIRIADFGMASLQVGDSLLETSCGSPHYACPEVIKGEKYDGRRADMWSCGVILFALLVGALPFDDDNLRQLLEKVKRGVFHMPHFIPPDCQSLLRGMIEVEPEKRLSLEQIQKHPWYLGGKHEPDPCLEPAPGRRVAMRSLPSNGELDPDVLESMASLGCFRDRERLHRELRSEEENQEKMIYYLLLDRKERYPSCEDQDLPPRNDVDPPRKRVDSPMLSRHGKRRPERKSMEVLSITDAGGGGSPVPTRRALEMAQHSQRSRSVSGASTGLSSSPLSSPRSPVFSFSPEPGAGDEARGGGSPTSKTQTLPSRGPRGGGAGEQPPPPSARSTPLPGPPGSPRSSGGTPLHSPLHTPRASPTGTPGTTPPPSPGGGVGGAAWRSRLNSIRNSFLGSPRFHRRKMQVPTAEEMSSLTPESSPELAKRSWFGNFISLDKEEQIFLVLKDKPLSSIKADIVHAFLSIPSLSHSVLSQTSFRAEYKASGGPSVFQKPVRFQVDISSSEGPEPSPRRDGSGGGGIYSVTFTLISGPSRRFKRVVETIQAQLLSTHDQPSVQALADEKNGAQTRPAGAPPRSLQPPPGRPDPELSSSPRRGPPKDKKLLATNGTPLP
In short: as §1

BRAF(V600E) = target: T17, BRAF(V600E) (Homo sapiens, UniProt P15056, V600E); conditions: read-out: % Retention on Solid Support
T17 construct: purchased DiscoveRx KINOMEscan
In short: as §1

PKMYT1 = target: T18, PKMYT1 (Homo sapiens, UniProt Q99640)
T18 construct: purchased DiscoveRx KINOMEscan
In short: as §1

[2] = target: T19, ABL1(E255K)-nonphosphorylated (Homo sapiens, UniProt P00519, E255K); conditions: 10 µM i-CDK9; read-out: % Retention on Solid Support
T19 construct: purchased DiscoveRx KINOMEscan
In short: as §1

RIPK1 = target: T20, RIPK1 (Homo sapiens, UniProt Q13546); conditions: read-out: % Retention on Solid Support
T20 construct: purchased DiscoveRx KINOMEscan
In short: as §1

MST3 = target: T21, MST3 (Homo sapiens, UniProt Q9Y6E0)
T21 construct: purchased DiscoveRx KINOMEscan
T21 sequence (Q9Y6E0 whole entry): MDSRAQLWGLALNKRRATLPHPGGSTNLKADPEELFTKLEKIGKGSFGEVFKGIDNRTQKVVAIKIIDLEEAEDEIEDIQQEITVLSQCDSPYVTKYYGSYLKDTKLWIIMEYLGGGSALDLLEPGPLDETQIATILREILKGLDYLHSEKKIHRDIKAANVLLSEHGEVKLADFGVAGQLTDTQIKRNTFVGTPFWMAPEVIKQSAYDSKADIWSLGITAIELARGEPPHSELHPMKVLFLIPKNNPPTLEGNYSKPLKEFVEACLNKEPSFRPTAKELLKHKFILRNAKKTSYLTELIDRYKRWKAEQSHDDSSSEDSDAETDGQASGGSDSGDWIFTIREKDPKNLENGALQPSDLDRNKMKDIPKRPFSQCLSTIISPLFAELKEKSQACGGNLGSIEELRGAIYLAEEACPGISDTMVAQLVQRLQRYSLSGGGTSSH
In short: as §1

S6K1 = S6K1 (Homo sapiens, UniProt P23443); conditions: 1 µM i-CDK9; read-out: % Retention on Solid Support
In short: as §1

PFCDPK1(P.falciparum) = target: T22, PFCDPK1(P.falciparum) (Plasmodium falciparum, UniProt P62344); conditions: 1 µM i-CDK9; read-out: % Retention on Solid Support
T22 construct: purchased DiscoveRx KINOMEscan
In short: as §1

TTK = target: T23, TTK (Homo sapiens, UniProt P33981); conditions: read-out: % Retention on Solid Support
T23 construct: purchased DiscoveRx KINOMEscan
In short: as §1

CDKL1 = target: T24, CDKL1 (Homo sapiens, UniProt Q00532); conditions: 1 µM i-CDK9; read-out: % Retention on Solid Support
T24 construct: purchased DiscoveRx KINOMEscan
In short: as §1

MTOR = target: T25, MTOR (Homo sapiens, UniProt P42345); conditions: 1 µM i-CDK9; read-out: % Retention on Solid Support
T25 construct: purchased DiscoveRx KINOMEscan
In short: as §1

PIK3CA(C420R) = target: T26, PIK3CA(C420R) (Homo sapiens, UniProt P42336, C420R); conditions: read-out: % Retention on Solid Support
T26 construct: purchased DiscoveRx KINOMEscan
In short: as §1

KIT(V559D) = target: T27, KIT(V559D) (Homo sapiens, UniProt P10721, V559D); conditions: read-out: % Retention on Solid Support
T27 construct: purchased DiscoveRx KINOMEscan
T27 sequence (P10721 26-976 V559D): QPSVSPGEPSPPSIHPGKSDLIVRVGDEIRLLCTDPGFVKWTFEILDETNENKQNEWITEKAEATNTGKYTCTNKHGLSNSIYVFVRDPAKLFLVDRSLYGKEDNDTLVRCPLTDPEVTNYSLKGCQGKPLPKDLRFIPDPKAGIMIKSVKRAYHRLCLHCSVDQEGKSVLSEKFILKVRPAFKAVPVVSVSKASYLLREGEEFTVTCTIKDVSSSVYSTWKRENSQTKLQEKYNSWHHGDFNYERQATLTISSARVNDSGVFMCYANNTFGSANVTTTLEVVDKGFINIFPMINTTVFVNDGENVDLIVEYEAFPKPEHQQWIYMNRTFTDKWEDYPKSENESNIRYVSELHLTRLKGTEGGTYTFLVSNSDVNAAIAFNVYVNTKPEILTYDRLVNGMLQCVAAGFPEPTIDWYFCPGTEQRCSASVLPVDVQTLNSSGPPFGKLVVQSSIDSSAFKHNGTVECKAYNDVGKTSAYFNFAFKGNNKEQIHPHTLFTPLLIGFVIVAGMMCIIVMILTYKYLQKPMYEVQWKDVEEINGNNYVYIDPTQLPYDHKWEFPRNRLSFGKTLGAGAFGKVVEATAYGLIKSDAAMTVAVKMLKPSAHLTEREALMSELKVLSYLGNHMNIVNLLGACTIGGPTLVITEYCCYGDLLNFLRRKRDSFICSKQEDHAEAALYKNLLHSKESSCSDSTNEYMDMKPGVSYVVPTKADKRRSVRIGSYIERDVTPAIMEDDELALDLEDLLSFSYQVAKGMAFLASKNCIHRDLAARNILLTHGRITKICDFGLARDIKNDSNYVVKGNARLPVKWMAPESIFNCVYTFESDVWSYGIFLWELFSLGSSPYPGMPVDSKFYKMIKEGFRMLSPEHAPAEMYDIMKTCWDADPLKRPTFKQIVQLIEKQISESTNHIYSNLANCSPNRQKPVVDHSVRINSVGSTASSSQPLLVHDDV
In short: as §1

RET(V804M) = target: T28, RET(V804M) (Homo sapiens, UniProt P07949, V804M); conditions: read-out: % Retention on Solid Support
T28 construct: purchased DiscoveRx KINOMEscan
In short: as §1

p38-delta = target: T29, p38-delta (Homo sapiens, UniProt O15264); conditions: read-out: % Retention on Solid Support
T29 construct: purchased DiscoveRx KINOMEscan
In short: as §1

## N[C@H]1CC[C@H](Nc2cc(-c3cccc(NCc4cccc(F)c4)n3)c(Cl)cn2)CC1 [i-CDK9, N2′-(trans-4-aminocyclohexyl)-5′-chloro-N6-(3-fluorobenzyl)-2,4′-bipyridine-2′,6-diamine]
INSRR; 1 µM i-CDK9
  remaining binding at 1 µM: 92%
INSRR; 10 µM i-CDK9
  remaining binding at 10 µM: 97%
JNK2; 1 µM i-CDK9
  % Retention on Solid Support: 98%
JNK2; 10 µM i-CDK9
  % Retention on Solid Support: 78%
[1]
  remaining binding at 10 µM: 100%
FGFR2; 1 µM i-CDK9
  remaining binding at 1 µM: 97%
FGFR2; 10 µM i-CDK9
  remaining binding at 10 µM: 100%
CAMKK1; 1 µM i-CDK9
  remaining binding at 1 µM: 100%
CAMKK1; 10 µM i-CDK9
  remaining binding at 10 µM: 100%
GAK; 1 µM i-CDK9
  remaining binding at 1 µM: 100%
GAK; 10 µM i-CDK9
  remaining binding at 10 µM: 89%
GRK4; 1 µM i-CDK9
  remaining binding at 1 µM: 100%
GRK4; 10 µM i-CDK9
  remaining binding at 10 µM: 100%
MEK5
  remaining binding at 1 µM: 100%
CDKL3; 1 µM i-CDK9
  remaining binding at 1 µM: 44%
CDKL3; 10 µM i-CDK9
  remaining binding at 10 µM: 23%
YSK1; 1 µM i-CDK9
  remaining binding at 1 µM: 98%
YSK1; 10 µM i-CDK9
  remaining binding at 10 µM: 96%
PHKG1; 1 µM i-CDK9
  remaining binding at 1 µM: 100%
PHKG1; 10 µM i-CDK9
  remaining binding at 10 µM: 100%
ULK1; 1 µM i-CDK9
  % Retention on Solid Support: 80%
ULK1; 10 µM i-CDK9
  % Retention on Solid Support: 79%
DDR2; 1 µM i-CDK9
  remaining binding at 1 µM: 100%
DDR2; 10 µM i-CDK9
  remaining binding at 10 µM: 92%
DRAK2; 1 µM i-CDK9
  remaining binding at 1 µM: 82%
DRAK2; 10 µM i-CDK9
  remaining binding at 10 µM: 72%
NEK6; 1 µM i-CDK9
  remaining binding at 1 µM: 70%
NEK6; 10 µM i-CDK9
  remaining binding at 10 µM: 100%
BRSK1; 1 µM i-CDK9
  remaining binding at 1 µM: 100%
BRSK1; 10 µM i-CDK9
  remaining binding at 10 µM: 89%
BRAF(V600E); 1 µM i-CDK9
  remaining binding at 1 µM: 100%
BRAF(V600E); 10 µM i-CDK9
  remaining binding at 10 µM: 88%
PKMYT1; 1 µM i-CDK9
  % Retention on Solid Support: 100%
PKMYT1; 10 µM i-CDK9
  % Retention on Solid Support: 93%
[2]
  remaining binding at 10 µM: 100%
RIPK1; 1 µM i-CDK9
  remaining binding at 1 µM: 100%
RIPK1; 10 µM i-CDK9
  remaining binding at 10 µM: 100%
MST3; 1 µM i-CDK9
  % Retention on Solid Support: 83%
MST3; 10 µM i-CDK9
  % Retention on Solid Support: 90%
S6K1
  remaining binding at 1 µM: 100%
PFCDPK1(P.falciparum)
  remaining binding at 1 µM: 100%
TTK; 1 µM i-CDK9
  remaining binding at 1 µM: 100%
TTK; 10 µM i-CDK9
  remaining binding at 10 µM: 100%
CDKL1
  remaining binding at 1 µM: 100%
MTOR
  remaining binding at 1 µM: 100%
PIK3CA(C420R); 1 µM i-CDK9
  remaining binding at 1 µM: 100%
PIK3CA(C420R); 10 µM i-CDK9
  remaining binding at 10 µM: 100%
KIT(V559D); 1 µM i-CDK9
  remaining binding at 1 µM: 88%
KIT(V559D); 10 µM i-CDK9
  remaining binding at 10 µM: 90%
RET(V804M); 1 µM i-CDK9
  remaining binding at 1 µM: 74%
RET(V804M); 10 µM i-CDK9
  remaining binding at 10 µM: 74%
p38-delta; 1 µM i-CDK9
  remaining binding at 1 µM: 100%
p38-delta; 10 µM i-CDK9
  remaining binding at 10 µM: 98%
